According to PMC7828495, “Synthesis, Stability, and Antidiabetic Activity Evaluation of (−)-Epigallocatechin Gallate (EGCG) Palmitate Derived from Natural Tea Polyphenols” (Molecules, 2021):
Read-outs that look alike come from different tables or passages of the source.

Key:
α-glucosidase = molecular target: T1, α-glucosidase (Saccharomyces cerevisiae, UniProt P53341); assay: α-Glucosidase inhibition assay (PNPG substrate); assay type: biochemical
T1 construct: purchased Sinopharm Group Chemical Reagent Co. (Shanghai, China)
Procedure: (§1) All of the other solvents and chemicals used were obtained from Sinopharm Group Chemical Reagent Co., Ltd. (Shanghai, China) and were of analytical grade. Sodium phosphate buffer (PBS) was purchased from Solarbio Co. (Beijing, China) and was prepared to make a concentration of 0.01 M aqueous solution (pH 7.2).
The activity of α-glucosidase was determined in a 96-well plate based on 4-Nitrophenyl […]-D-glucopyranoside (PNPG) as a substrate.

[1] = pH stability in alkalescent condition (HPLC); assay type: physicochemical; conditions: ethanol/PBS 80:20, pH 7.2, 37 °C, open air, 1.3 mM
Procedure: (§2) Since the intestine system is alkalescent, it is necessary to assess the stability of EGCG and PEGCG under this condition.
Equivalent molar concentrations (1.3 mM) of EGCG and PEGCG were incubated in Pyrex test tubes (20 × 1.6 cm, i.d.) in the open air at 37 °C, respectively, without any agitation. Aliquots (20 µL) of the incubation solution was periodically (1, 2, 5 h) sampled and subjected to HPLC analysis, respectively. HPLC condition was the same as Item 2.5.

[2] = Storage stability of powder in open air; assay type: physicochemical; conditions: room temperature, 60 d
Text: To study the storage stability of EGCG and PEGCG powder, […] of the two powders were kept in the open air at room temperature, respectively. After 60 days, aliquots of the two powders were sampled and subjected to HPLC analysis, respectively. The HPLC condition was the same as Item 2.5.

[3] = Thermal stability (TG analysis); assay type: physicochemical; conditions: 30 to 400 °C, 10 °C/min, nitrogen
Procedure: The thermal stability behaviors of EGCG and PEGCG were investigated on a TG apparatus (SDT […], TA Instruments, New Castle, DE, USA). About 3.0 mg of each sample was used to perform the analysis by putting the powder on a TG pan. The sample was scanned from 30 to 400 °C with a heating rate of 10 °C/min under a nitrogen atmosphere.

[4] = parameters: method as in PMID 16302765, PMID 12499265; conditions: sodium phosphate buffer pH 7.4, 3 h; cited from earlier work
[5] = parameters: method as in PMID 9177723; conditions: rats, 56 mg of EGCG orally; cited from earlier work
[6] = parameters: method as in PMID 9177723; conditions: humans, single oral intake of 97 mg; cited from earlier work
Mouse = conditions: cited from earlier work
human = conditions: ref Material Safety Data Sheet (MSDS); cited from earlier work
[7] = tested on: porcine pancreatic α-amylase; assay: α-Amylase inhibition assay; assay type: biochemical; conditions: ratio of IC50 values versus EGCG
Procedure: as §1

Solubility in PBS = assay type: physicochemical
Text: as §2

[8] = Mouse, acute toxicity, ref Material Safety Data Sheet (MSDS)

T1 sequence (P53341 whole entry): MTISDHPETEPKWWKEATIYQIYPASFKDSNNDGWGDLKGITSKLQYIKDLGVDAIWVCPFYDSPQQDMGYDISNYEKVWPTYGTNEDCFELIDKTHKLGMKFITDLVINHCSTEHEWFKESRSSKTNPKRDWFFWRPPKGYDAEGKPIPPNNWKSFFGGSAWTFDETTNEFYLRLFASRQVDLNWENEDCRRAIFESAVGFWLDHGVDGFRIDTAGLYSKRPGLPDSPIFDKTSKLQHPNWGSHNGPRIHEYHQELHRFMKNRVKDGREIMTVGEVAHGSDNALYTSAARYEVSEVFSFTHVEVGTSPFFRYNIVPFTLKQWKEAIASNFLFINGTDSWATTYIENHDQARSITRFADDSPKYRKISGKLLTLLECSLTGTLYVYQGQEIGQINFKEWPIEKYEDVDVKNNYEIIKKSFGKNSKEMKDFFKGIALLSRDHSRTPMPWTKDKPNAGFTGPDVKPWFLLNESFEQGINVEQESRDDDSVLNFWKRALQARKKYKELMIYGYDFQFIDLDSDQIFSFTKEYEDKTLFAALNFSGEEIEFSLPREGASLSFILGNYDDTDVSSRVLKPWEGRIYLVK
porcine pancreatic α-amylase, sequence (P06278 30-512): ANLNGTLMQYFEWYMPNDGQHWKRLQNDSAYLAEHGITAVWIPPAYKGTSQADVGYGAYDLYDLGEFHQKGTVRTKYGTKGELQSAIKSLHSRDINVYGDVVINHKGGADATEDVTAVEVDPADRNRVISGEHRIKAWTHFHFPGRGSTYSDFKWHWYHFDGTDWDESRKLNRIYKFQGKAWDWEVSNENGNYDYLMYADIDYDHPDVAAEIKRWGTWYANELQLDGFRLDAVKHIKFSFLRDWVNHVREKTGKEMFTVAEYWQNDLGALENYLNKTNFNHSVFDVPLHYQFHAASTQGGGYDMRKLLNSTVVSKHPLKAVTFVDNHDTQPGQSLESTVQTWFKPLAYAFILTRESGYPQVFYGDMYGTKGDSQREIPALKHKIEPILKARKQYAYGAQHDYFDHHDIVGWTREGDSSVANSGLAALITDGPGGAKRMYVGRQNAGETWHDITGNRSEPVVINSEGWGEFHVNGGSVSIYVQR

O=C(O[C@@H]1Cc2c(O)cc(O)cc2O[C@@H]1c1cc(O)c(O)c(O)c1)c1cc(O)c(O)c(O)c1 [EGCG, (−)-Epigallocatechin gallate]
IC50 (α-glucosidase): 11.5 ± 0.02 µM | degraded / hydrolyzed after 1 h [1]: 93% | degraded / hydrolyzed after 5 h [1]: utterly degraded | remained after storage [2]: 45% | thermal decomposition temperature [3]: 234.5 °C | EGCG lost [4]: 90% | absorbed after oral dose [5]: 0.01% | absorbed after oral dose [6]: 0.32%

CCN(CC)CC [Triethylamine]
Acute toxicity grade (Mouse; [8]): medium toxicity | LD50 (Mouse; mouse, in vivo): 460 mg/kg | Harm to Human Health (human): strong irritant to the respiratory tract; after inhaling can cause pulmonary edema or even death

CC(=O)[O-].[Na+] [Sodium acetate]
Acute toxicity grade (Mouse; mouse, in vivo): LD50 25,956 mg/kg, non-toxic | LD50 (Mouse; mouse, in vivo): LD50 25,956 mg/kg, non-toxic | Harm to Human Health (human): None

c1ccncc1 [Pyridine]
Acute toxicity grade (Mouse; mouse, in vivo): LD50 1580 mg/kg, mild toxicity | LD50 (Mouse; mouse, in vivo): LD50 1580 mg/kg, mild toxicity | Harm to Human Health (human): Strong irritant; anesthetizes the central nervous system

CCCCCCCCCCCCCCCC(=O)Oc1c(O)cc([C@H]2Oc3cc(O)cc(O)c3C[C@H]2OC(=O)c2cc(O)c(O)c(O)c2)cc1O [PEGCG, 4′-O-palmitoyl EGCG]
α-amylase inhibitory activity relative to EGCG [7]: 4.5 times | IC50 (α-glucosidase; 37 °C, PNPG substrate, read-out: IC50 for α-Glucosidase): 0.22 ± 0.03 µM | α-glucosidase inhibitory activity relative to EGCG (α-glucosidase; ratio of IC50 values versus EGCG): 52 times | α-glucosidase inhibitory activity relative to acarbose (α-glucosidase; ratio of IC50 values versus acarbose): 0.68 times | degraded / hydrolyzed after 1 h [1]: most of the PEGCG was hydrolyzed to EGCG and its dimers | degraded / hydrolyzed after 5 h [1]: 100% | remained after storage [2]: 78% | thermal decomposition temperature [3]: 311.19 °C | solubility in PBS (Solubility in PBS): insoluble in PBS

O=C([O-])[O-].[Na+].[Na+] [Sodium carbonate]
Harm to Human Health (human): Irritant and corrosive

CN(C)c1ccncc1 [4-dimethylaminopyridine (DMAP), 4-dimethylaminopyridine]
Acute toxicity grade (Mouse; [8]): LD50 250 mg/kg, medium toxicity | Harm to Human Health (human): Irritating to the eyes; eating poisonous
